Our source for the concentration values is patent publication US5496564A, “Suspendible composition and process for preparing the same” (Fujisawa Pharmaceutical Co., Ltd., priority 1990, dated 1996).

Molecules are shown by their SMILES.

This data set can be described thus: Absorption test by oral administration: concentration in whole blood. To be noted: cynomolgus monkey, cynomolgus monkeys (six), oral 0.32 mg/kg, aqueous suspension of Prescription 7 diluted to 0.064 mg/ml, average ± standard error, read-out: Conc. in whole blood. It counts as in vivo. Here is the method: The aqueous suspension obtained in Prescription 7 was used.
The oral agent mentioned above was diluted with purified water to have the concentration of FK 506 substance of 0.064 mg/ml. The resultant was orally administered to six cynomolgus monkeys (0.32 mg/kg).
The concentration of FK 506 substance in whole blood was measured 0.5, 1, 2, 4 and 6 hours after the administration in accordance with the aforesaid enzyme immunoassay.
The test results are represented by the average ± standard error.

As to `C=CCC1C=C(C)CC(C)CC(OC)C2OC(O)(C(=O)C(=O)N3CCCCC3C(=O)OC(C(C)=CC3CCC(O)C(OC)C3)C(C)C(O)CC1=O)C(C)CC2OC` (centres unmarked) [FK 506 substance, 17-allyl-1,14-dihydroxy-12-[2-(4-hydroxy-3-methoxycyclohexyl)-1-methylvinyl]-23,25-dimethoxy-13,19,21,27-tetramethyl-11,28-dioxa-4-azatricyclo-[22.3.1.0^4,9]octacos-18-ene-2,3,10,16-tetraone], the concentration at 0.5 h (0.5 hours) is 13.4 ± 9.88 ng/mL. Besides, the concentration at 1 h (1 hour) is 18.6 ± 9.36 ng/mL. Further, the concentration at 2 h (2 hours) stood at 18.6 ± 9.89 ng/mL. Besides, the concentration at 4 h (4 hours) is 15.3 ± 7.77 ng/mL. Besides, for the setting “6 hours”, the concentration at 6 h came out at 12.4 ± 9.33 ng/mL.
